Here are results for 22 compounds from US10292390B2, “Inhibition and dispersion of bacterial biofilms with 2-aminobenzimidazole derivatives” (WISCONSIN ALUMNI RESEARCH FOUNDATION, priority 2011, dated 2019).

For assay [1], the system named is P. aeruginosa PAO1 biofilm. Nature of the assay: crystal violet static biofilm inhibition assay. It counts as cell-based, Pseudomonas aeruginosa. To be noted: for IC50: Pseudomonas aeruginosa, PAO1; for inhibition of biofilm growth: at 100 micro M, 24 h; for anti-biofilm (biofilm inhibitory) activity in words: initial screen at 500 μM, 12 and 24 h. As to the method:
Stilbenes 1, 2, and 4a-b were tested for inhibition of biofilm formation in a wild-type P. aeruginosa strain (PAO1) at 500 μM using standard static biofilm growth assays.
Biofilms were grown in a modified M9 minimal media in 96-well microtiter plates, and crystal violet staining of the surface-associated biomass was used to quantify biofilm growth at 12 and 24 h (see The Examples).
A modified version of the widely used crystal violet (CV) microtiter plate biofilm assay, first described by Christensen et al. and later popularized by O'Toole et al., [57] was used in this study and is described in detail below.
Compounds to be evaluated for biofilm modulatory activity were added to the assay microtiter plates by means of a “solvent evaporation” delivery. This delivery method involves preparation of compound stock solutions, addition of stocks to microtiter plates at appropriate volumes to obtain target molar quantities per well, evaporation of the solvent, and re-solubilization of the compound in the final assay medium upon inoculum addition. This delivery method was adopted to avoid the biofilm inhibitory effects observed with an “organic solvent-to-solution” delivery method (e.g., DMSO-to-media; data not shown), which is more commonly done in small molecule screens. EtOH was chosen as the solvent for solvent evaporation delivery in this study based on the chemical resistance limitations of polystyrene microtiter plates. Prior to each experiment, EtOH stock solutions of compounds being evaluated were prepared, diluted, and added to microtiter plates at varied volumes to obtain a target final concentration per well upon inoculum addition. Plates were incubated at 37° C. to evaporate EtOH and sterilized in a Baker SterilGARD III Advance Biological Safety Cabinet by UV-C germicidal irradiation for 30 min (lids removed). EtOH only was added to wells designated as “no compound” positive controls (Pos. Con.) and “no bacteria” negative controls (note, controls lacking bacteria yielded no significant staining in the CV assay (data not shown)). The outer wells were never used for test samples as evaporation and significant deviations in growth were observed; thus, outer wells were filled with sterile 18 MΩ H2O to minimize these effects.
Bacterial samples for biofilm assessment were prepared by first streaking a freezer stock of P. aeruginosa PAO1 on an LB/agar plate and incubating at 37° C. for ˜16 h. Single colonies were selected and used to inoculate LB medium (10 mL) in a 25 mL Erlenmeyer flask. The culture was grown on an incubator-shaker (200 rpm) at 37° C. for ˜16 h to an OD600 of ˜1.0. Overnight cultures were gently decanted into falcon tubes to minimize transfer of biofilm produced during overnight growth. An inoculating culture was prepared by centrifuging an aliquot of overnight culture at 3,000 rpm for 10 min, removal of the supernatant, and then re-suspending the pellet in 95:5 M9+:LB at 10-fold the initial volume (effecting a 1-in-10 dilution; OD600 ˜0.1-0.2). Using a multi-channel pipette, this culture was added to test microtiter plates in 200 μL aliquots. The well contents were mixed using a 10 μL multi-channel pipette in a swirling motion; insoluble compound samples were noted and later excluded from the data set as needed.
Plates were covered with the provided lid and incubated statically at 37° C. for 12-24 h. Maximal biofilm formation is obtained at 24 h, after which the amount of biofilm declines unless fresh nutrients are provided. After incubation, the OD600 was measured, and the bacterial suspension was removed by inverting and shaking the plate over a waste pan and then taping on a paper towel (process termed “dumping”). Non-biofilm associated biomaterial was removed by adding 225 μL PBS and dumping (process termed “washing”) and then repeating this washing process. Biofilm was fixed to the microtiter plates by uncovering the plate and thermally dehydrating at 37° C. […]

The test system of the next assay is Gram-positive bacteria. Conditions: WO 2010/144686 (7); ref. 34 (18); cited from earlier work.
The mark [2] stands for this setting: 12 h incubation, CV assay, read-out: 12 h biofilm IC50.
Where [3] appears, read: 24 h incubation, CV assay, read-out: 24 h biofilm IC50.
The mark [4] stands for this setting: Table 1, crystal violet, read-out: IC50, P. aeruginosa PAO1 biofilm inhibition.

Structures are written as SMILES. Where two headings read alike, the source gives them in different places.

For `Nc1nc2ccc(/C=C/c3ccccc3)cc2[nH]1` [Compound 1, 6-Styryl-2-aminobenzimidazole], the 50% inhibitory concentration (IC50) was 13 µM in assay [1] (setting [2]) and 8.9 µM in assay [1] (setting [3]). For the same compound, the “inhibition of biofilm growth” value in assay [1] is on record as 56%.

Consider `Nc1nc(-c2ccc(/C=C/c3ccccc3)cc2)c[nH]1` [Compound 2, 4-(E)-Stilbene-2-aminoimidazole], for which the values for the IC50 in assay [1] (setting [2]) and in assay [1] (setting [3]) were 3.8 µM and 18 µM, respectively. Moreover, the “inhibition of biofilm growth” value in assay [1] stood at 48%.

For `S=c1[nH]c2ccccc2[nH]1` [Compound 2-TBI, 2-thiobenzamidazole, reference compound], in assay [1], the “anti-biofilm (biofilm inhibitory) activity in words” value is reported as “significantly less active than 2-ABI derivatives”.

On to `C(=C\c1ccc2[nH]ccc2c1)/c1ccccc1` [Compound 4a, 5-Styryl-1H-indole], for which the “anti-biofilm (biofilm inhibitory) activity in words” value in assay [1] is “Neither indole, derivative (4a-b), however, showed appreciable anti-biofilm activity”.

For `C(=C\c1ccc2cc[nH]c2c1)/c1ccccc1` [Compound 4b, 6-Styryl-1H-indole], the “anti-biofilm (biofilm inhibitory) activity in words” value in assay [1] is “Neither indole, derivative (4a-b), however, showed appreciable anti-biofilm activity”.

For the compound `C(=C\c1ccc2nc[nH]c2c1)/c1ccccc1` [Compound 5, 6-Styryl-1H-benzimidazole], the “anti-biofilm (biofilm inhibitory) activity in words” value in assay [1] is listed as “complete loss of inhibitory activity”.

For the compound `COc1ccc2[nH]c(=S)[nH]c2c1` [Compound 5-OMe-2-TBI, reference compound], the “anti-biofilm (biofilm inhibitory) activity in words” value in assay [1] was “significantly less active than 2-ABI derivatives”.

`C(=Cc1ccccc1)c1ccccc1` [Compound 6, Stilbene, reference compound]: in assay [1], the “anti-biofilm (biofilm inhibitory) activity in words” value is “complete loss of inhibitory activity”.

As to `Nc1ncc[nH]1` [Compound 8, 2-aminoimidazole, reference compound], the “anti-biofilm (biofilm inhibitory) activity in words” value in assay [1] was “neither 2-AI (8) nor guanidine (9) was found to display significant inhibitory activity”.

Take `N=C(N)N` [Compound 9, Guanidine, reference compound]: the “anti-biofilm (biofilm inhibitory) activity in words” value in assay [1] is given as “neither 2-AI (8) nor guanidine (9) was found to display significant inhibitory activity”.

Take `Nc1nc2cc(I)ccc2[nH]1` [Compound 10, 5-Iodo-2-aminobenzimidazole]: the IC50 in assay [1] (setting [2]) amounted to 26.3 µM; in assay [1] (setting [3]), 20.3 µM; in assay [1] (setting [4]), 20 µM.

Take `Nc1nc2cc(Br)ccc2[nH]1` [Compound 11, 5-Bromo-2-aminobenzimidazole]: the IC50 in assay [1] (setting [2]) stood at 22 µM; in assay [1] (setting [3]) it was 22.2 µM; in assay [1] (setting [4]), 22 µM.

For the compound `Nc1nc2cc(Cl)ccc2[nH]1` [Compound 12, 5-Chloro-2-aminobenzimidazole], the IC50 was 25.7 µM in assay [1] (setting [2]), 27.5 µM in assay [1] (setting [3]) and 28 µM in assay [1] (setting [4]).

`Nc1nc2cc(F)ccc2[nH]1` [Compound 13, 5-Fluoro-2-aminobenzimidazole]: the IC50 in assay [1] (setting [2]) worked out at 30.2 µM; in assay [1] (setting [3]) it was 35.2 µM; in assay [1] (setting [4]), 35 µM.

Turning to `COC(=O)c1ccc2[nH]c(N)nc2c1` [Compound 15, 5-Carboxylic acid methyl ester-2-aminobenzimidazole], the IC50 in assay [1] (setting [2]) turned out to be 186 µM; in assay [1] (setting [3]) it was 139 µM; in assay [1] (setting [4]), 140 µM.

For `Nc1nc2cc(C(=O)O)ccc2[nH]1` [Compound 16, 5-Carboxylic acid-2-aminobenzimidazole], the “anti-biofilm (biofilm inhibitory) activity in words” value in assay [1] is “total loss”.

For `N#Cc1ccc2[nH]c(N)nc2c1` [Compound 17, 5-Cyano-2-aminobenzimidazole], the IC50 in assay [1] (setting [2]) is 199 µM; in assay [1] (setting [3]), 175 µM; in assay [1] (setting [4]) it was 180 µM.

On to `Nc1nc2cc([N+](=O)[O-])ccc2[nH]1` [Compound 18, 5-Nitro-2-aminobenzimidazole], for which, in the assay with Gram-positive bacteria, the “biofilm inhibition in Gram-positive bacteria as reported” value is given as “reported to be a biofilm inhibitor in Gram-positive bacteria”. Moreover, the IC50 in assay [1] (setting [2]) is 49.6 µM; in assay [1] (setting [3]), 63.1 µM; in assay [1] (setting [4]), 63 µM.

For `Cc1cccc2[nH]c(N)nc12` [Compound 19, 4-Methyl-2-aminobenzimidazole], the half-maximal inhibitory concentration (IC50) in assay [1] (setting [2]) is 37.6 µM; in assay [1] (setting [3]), 38.7 µM; in assay [1] (setting [4]) it was 39 µM.

On to `Cc1ccc2[nH]c(N)nc2c1` [Compound 20, 5-Methyl-2-aminobenzimidazole], for which the IC50 in assay [1] (setting [2]) was 27.3 µM; in assay [1] (setting [3]), 25.4 µM; in assay [1] (setting [4]), 25 µM.

Take `COc1ccc2[nH]c(N)nc2c1` [Compound 22, 5-Methoxy-2-aminobenzimidazole]: the 50% inhibitory concentration (IC50) in assay [1] (setting [2]) turned out to be 73.8 µM; in assay [1] (setting [3]), 80.1 µM; in assay [1] (setting [4]), 80 µM.

`Nc1nc2cc3ccccc3cc2[nH]1` [Compound 24, 2-Amino-1H-naphtho[2,3-d]imidazole]: the 50% inhibitory concentration (IC50) in assay [1] (setting [2]) was found to be 54.5 µM; in assay [1] (setting [3]), 48.3 µM; in assay [1] (setting [4]), 48 µM.
